Laboratory results taken from the NIST ThermoML archive (doi:10.1021/je1004092).
± gives the expanded uncertainty stated by the source.

Key:
[1] = molar heat capacity at constant pressure; details: 101.33 kPa, Vacuum adiabatic calorimetry
[2] = Crystal; Adiabatic calorimetry
[3] = Molar enthalpy of transition or fusion; details: Crystal; Adiabatic calorimetry

SMILES: O=C(N[C@@H](Cc1ccccc1)C(=O)O)OCc1ccccc1 [((benzyloxy)carbonyl)-L-phenylalanine]
- molar heat capacity at constant pressure ([1]; 79.13 K, Crystal): 109.2 ± 0.7 J/K/mol
- molar heat capacity at constant pressure ([1]; 81.17 K, Crystal): 111.4 ± 0.7 J/K/mol
- molar heat capacity at constant pressure ([1]; 84.32 K, Crystal): 114.7 ± 0.7 J/K/mol
- molar heat capacity at constant pressure ([1]; 87.26 K, Crystal): 119.7 ± 0.7 J/K/mol
- molar heat capacity at constant pressure ([1]; 90.2 K, Crystal): 124.4 ± 0.8 J/K/mol
- molar heat capacity at constant pressure ([1]; 93.15 K, Crystal): 128 ± 0.8 J/K/mol
- molar heat capacity at constant pressure ([1]; 96.1 K, Crystal): 130.2 ± 0.8 J/K/mol
- molar heat capacity at constant pressure ([1]; 99.05 K, Crystal): 132.6 ± 0.8 J/K/mol
- molar heat capacity at constant pressure ([1]; 103.16 K, Crystal): 135.7 ± 0.9 J/K/mol
- molar heat capacity at constant pressure ([1]; 107.22 K, Crystal): 140.4 ± 0.9 J/K/mol
- molar heat capacity at constant pressure ([1]; 110.14 K, Crystal): 143.8 ± 0.9 J/K/mol
- molar heat capacity at constant pressure ([1]; 113.08 K, Crystal): 146.3 ± 0.9 J/K/mol
- molar heat capacity at constant pressure ([1]; 116.03 K, Crystal): 149.3 ± 0.9 J/K/mol
- molar heat capacity at constant pressure ([1]; 119 K, Crystal): 150.1 ± 0.9 J/K/mol
- molar heat capacity at constant pressure ([1]; 121.92 K, Crystal): 156.4 ± 1 J/K/mol
- molar heat capacity at constant pressure ([1]; 124.86 K, Crystal): 158.7 ± 1 J/K/mol
- molar heat capacity at constant pressure ([1]; 127.83 K, Crystal): 160.7 ± 1 J/K/mol
- molar heat capacity at constant pressure ([1]; 130.81 K, Crystal): 161.9 ± 1 J/K/mol
- molar heat capacity at constant pressure ([1]; 133.81 K, Crystal): 165.1 ± 1 J/K/mol
- molar heat capacity at constant pressure ([1]; 136.78 K, Crystal): 168.9 ± 1 J/K/mol
- molar heat capacity at constant pressure ([1]; 139.76 K, Crystal): 171.3 ± 1.1 J/K/mol
- molar heat capacity at constant pressure ([1]; 142.78 K, Crystal): 172.5 ± 1.1 J/K/mol
- molar heat capacity at constant pressure ([1]; 145.75 K, Crystal): 176.2 ± 1.1 J/K/mol
- molar heat capacity at constant pressure ([1]; 148.7 K, Crystal): 181.2 ± 1.1 J/K/mol
- molar heat capacity at constant pressure ([1]; 152.53 K, Crystal): 181.4 ± 1.1 J/K/mol
- molar heat capacity at constant pressure ([1]; 156.3 K, Crystal): 185.2 ± 1.1 J/K/mol
- molar heat capacity at constant pressure ([1]; 159.2 K, Crystal): 189.8 ± 1.2 J/K/mol
- molar heat capacity at constant pressure ([1]; 162.16 K, Crystal): 191.9 ± 1.2 J/K/mol
- molar heat capacity at constant pressure ([1]; 165.09 K, Crystal): 194.2 ± 1.2 J/K/mol
- molar heat capacity at constant pressure ([1]; 168.09 K, Crystal): 197.5 ± 1.2 J/K/mol
- molar heat capacity at constant pressure ([1]; 171.13 K, Crystal): 198.8 ± 1.2 J/K/mol
- molar heat capacity at constant pressure ([1]; 174.16 K, Crystal): 201.1 ± 1.2 J/K/mol
- molar heat capacity at constant pressure ([1]; 177.16 K, Crystal): 206.1 ± 1.3 J/K/mol
- molar heat capacity at constant pressure ([1]; 180.14 K, Crystal): 209.9 ± 1.3 J/K/mol
- molar heat capacity at constant pressure ([1]; 183.11 K, Crystal): 211.4 ± 1.3 J/K/mol
- molar heat capacity at constant pressure ([1]; 186.05 K, Crystal): 211.8 ± 1.3 J/K/mol
- molar heat capacity at constant pressure ([1]; 188.97 K, Crystal): 218.1 ± 1.3 J/K/mol
- molar heat capacity at constant pressure ([1]; 191.95 K, Crystal): 219.3 ± 1.4 J/K/mol
- molar heat capacity at constant pressure ([1]; 194.98 K, Crystal): 223 ± 1.4 J/K/mol
- molar heat capacity at constant pressure ([1]; 198 K, Crystal): 226.3 ± 1.4 J/K/mol
- molar heat capacity at constant pressure ([1]; 201 K, Crystal): 229.2 ± 1.4 J/K/mol
- molar heat capacity at constant pressure ([1]; 204.65 K, Crystal): 233.5 ± 1.4 J/K/mol
- molar heat capacity at constant pressure ([1]; 208.28 K, Crystal): 236.2 ± 1.5 J/K/mol
- molar heat capacity at constant pressure ([1]; 211.23 K, Crystal): 238.9 ± 1.5 J/K/mol
- molar heat capacity at constant pressure ([1]; 214.17 K, Crystal): 242 ± 1.5 J/K/mol
- molar heat capacity at constant pressure ([1]; 217.09 K, Crystal): 248.7 ± 1.5 J/K/mol
- molar heat capacity at constant pressure ([1]; 220 K, Crystal): 250.5 ± 1.5 J/K/mol
- molar heat capacity at constant pressure ([1]; 222.89 K, Crystal): 252.5 ± 1.5 J/K/mol
- molar heat capacity at constant pressure ([1]; 225.77 K, Crystal): 254.9 ± 1.6 J/K/mol
- molar heat capacity at constant pressure ([1]; 228.72 K, Crystal): 256.4 ± 1.6 J/K/mol
- molar heat capacity at constant pressure ([1]; 231.73 K, Crystal): 258 ± 1.6 J/K/mol
- molar heat capacity at constant pressure ([1]; 234.73 K, Crystal): 260.1 ± 1.6 J/K/mol
- molar heat capacity at constant pressure ([1]; 237.77 K, Crystal): 264.5 ± 1.6 J/K/mol
- molar heat capacity at constant pressure ([1]; 240.78 K, Crystal): 266.6 ± 1.6 J/K/mol
- molar heat capacity at constant pressure ([1]; 244.33 K, Crystal): 268.1 ± 1.6 J/K/mol
- molar heat capacity at constant pressure ([1]; 247.89 K, Crystal): 270.2 ± 1.7 J/K/mol
- molar heat capacity at constant pressure ([1]; 250.89 K, Crystal): 273.1 ± 1.7 J/K/mol
- molar heat capacity at constant pressure ([1]; 253.88 K, Crystal): 277.4 ± 1.7 J/K/mol
- molar heat capacity at constant pressure ([1]; 256.87 K, Crystal): 280.9 ± 1.7 J/K/mol
- molar heat capacity at constant pressure ([1]; 259.83 K, Crystal): 282.4 ± 1.7 J/K/mol
- molar heat capacity at constant pressure ([1]; 262.79 K, Crystal): 286.2 ± 1.8 J/K/mol
- molar heat capacity at constant pressure ([1]; 265.74 K, Crystal): 290.4 ± 1.8 J/K/mol
- molar heat capacity at constant pressure ([1]; 268.67 K, Crystal): 292.7 ± 1.8 J/K/mol
- molar heat capacity at constant pressure ([1]; 271.58 K, Crystal): 297.9 ± 1.8 J/K/mol
- molar heat capacity at constant pressure ([1]; 274.49 K, Crystal): 302.3 ± 1.8 J/K/mol
- molar heat capacity at constant pressure ([1]; 277.38 K, Crystal): 301.8 ± 1.8 J/K/mol
- molar heat capacity at constant pressure ([1]; 280.25 K, Crystal): 307.3 ± 1.9 J/K/mol
- molar heat capacity at constant pressure ([1]; 283.12 K, Crystal): 314.7 ± 1.9 J/K/mol
- molar heat capacity at constant pressure ([1]; 286.09 K, Crystal): 319.9 ± 2 J/K/mol
- molar heat capacity at constant pressure ([1]; 289.05 K, Crystal): 323.8 ± 2 J/K/mol
- molar heat capacity at constant pressure ([1]; 291.98 K, Crystal): 326.7 ± 2 J/K/mol
- molar heat capacity at constant pressure ([1]; 295.01 K, Crystal): 330.1 ± 2 J/K/mol
- molar heat capacity at constant pressure ([1]; 298.06 K, Crystal): 333 ± 2 J/K/mol
- molar heat capacity at constant pressure ([1]; 301.11 K, Crystal): 336.5 ± 2.1 J/K/mol
- molar heat capacity at constant pressure ([1]; 304.15 K, Crystal): 339.5 ± 2.1 J/K/mol
- molar heat capacity at constant pressure ([1]; 307.19 K, Crystal): 340.6 ± 2.1 J/K/mol
- molar heat capacity at constant pressure ([1]; 310.22 K, Crystal): 343.9 ± 2.1 J/K/mol
- molar heat capacity at constant pressure ([1]; 313.24 K, Crystal): 348.3 ± 2.1 J/K/mol
- molar heat capacity at constant pressure ([1]; 316.26 K, Crystal): 351.4 ± 2.1 J/K/mol
- molar heat capacity at constant pressure ([1]; 319.27 K, Crystal): 353.7 ± 2.2 J/K/mol
- molar heat capacity at constant pressure ([1]; 322.27 K, Crystal): 358.3 ± 2.2 J/K/mol
- molar heat capacity at constant pressure ([1]; 325.27 K, Crystal): 362.5 ± 2.2 J/K/mol
- molar heat capacity at constant pressure ([1]; 328.25 K, Crystal): 367.6 ± 2.2 J/K/mol
- molar heat capacity at constant pressure ([1]; 331.24 K, Crystal): 371.4 ± 2.3 J/K/mol
- molar heat capacity at constant pressure ([1]; 334.21 K, Crystal): 375.1 ± 2.3 J/K/mol
- molar heat capacity at constant pressure ([1]; 337.17 K, Crystal): 380.6 ± 2.3 J/K/mol
- molar heat capacity at constant pressure ([1]; 340.13 K, Crystal): 389.8 ± 2.4 J/K/mol
- molar heat capacity at constant pressure ([1]; 343.07 K, Crystal): 396.6 ± 2.4 J/K/mol
- molar heat capacity at constant pressure ([1]; 345.97 K, Crystal): 418.3 ± 2.6 J/K/mol
- molar heat capacity at constant pressure ([1]; 348.88 K, Crystal): 508.8 ± 3.2 J/K/mol
- molar heat capacity at constant pressure ([1]; 361.43 K, Liquid): 549.6 ± 3.3 J/K/mol
- molar heat capacity at constant pressure ([1]; 364.56 K, Liquid): 551.9 ± 3.4 J/K/mol
- molar heat capacity at constant pressure ([1]; 367.7 K, Liquid): 552.7 ± 3.4 J/K/mol
- molar heat capacity at constant pressure ([1]; 370.83 K, Liquid): 553.6 ± 3.4 J/K/mol
- molar heat capacity at constant pressure ([1]; 373.95 K, Liquid): 554.9 ± 3.4 J/K/mol
- molar heat capacity at constant pressure ([1]; 377.05 K, Liquid): 555.6 ± 3.4 J/K/mol
- molar heat capacity at constant pressure ([1]; 380.13 K, Liquid): 557.1 ± 3.4 J/K/mol
- molar heat capacity at constant pressure ([1]; 383.21 K, Liquid): 558.5 ± 3.4 J/K/mol
- molar heat capacity at constant pressure ([1]; 386.33 K, Liquid): 560.8 ± 3.4 J/K/mol
- molar heat capacity at constant pressure ([1]; 389.43 K, Liquid): 562.4 ± 3.4 J/K/mol
- molar heat capacity at constant pressure ([1]; 392.55 K, Liquid): 563.6 ± 3.4 J/K/mol
- molar heat capacity at constant pressure ([1]; 395.55 K, Liquid): 564.8 ± 3.4 J/K/mol
- Triple point temperature [2]: 359.48 ± 1 K
- Molar enthalpy of transition or fusion [3]: 31.79 ± 0.033 kJ/mol
